Earlier results on two substances are cited in patent US20260199259A1, “CONTROLLED LIPID SELF-ASSEMBLY FOR SCALABLE MANUFACTURING OF NEXTGENERATION IMMUNE STIMULATING COMPLEXES” (MASSACHUSETTS INSTITUTE OF TECHNOLOGY, priority 2022, published 2026).

The test system of one series is chick embryo eggs. Conditions: measured by lethal dose in chick embryo eggs.

Take 4′-monophosporyl lipid A [MPLA]: the “factor of toxicity reduction relative to LPS” value in the series with chick embryo eggs is recorded as “more than 1000”.

For the substance QS-21, the micelle size (aqueous solutions) is recorded as ~ 7 nm. Also, where the note is “in PBS”, the solubility result was “up to 30 mg/mL”.
